US20180125993A1 (BEIJING COTIMES BIOTECH COMPANY LIMITED, priority 2014, published 2018)

Key:
HT-29 = assay: In vitro cytotoxic sensitivity of CTB006; assay type: cell-based, human; conditions: HT-29, Colorectal cancer
SW620 = assay: In vitro cytotoxic sensitivity of CTB006; assay type: cell-based, human; conditions: SW620, Colorectal cancer
ZR-75-30 = assay: In vitro cytotoxic sensitivity of CTB006; assay type: cell-based, human; conditions: ZR-75-30, Breast cancer
BT474 = assay: In vitro cytotoxic sensitivity of CTB006; assay type: cell-based, human; conditions: BT474, Breast cancer
DR4-His-EC = molecular target: T1, DR4-His-EC (Homo sapiens, UniProt O00220); assay: Binding specificity by chemiluminescent enzyme immunoassay (CLEIA); conditions: antibody 200, 40 and 8 ng/mL; 1 hour, 37° C.
T1 construct: His; made in house; host or cells: E. coli
T1 sequence (O00220 24-468): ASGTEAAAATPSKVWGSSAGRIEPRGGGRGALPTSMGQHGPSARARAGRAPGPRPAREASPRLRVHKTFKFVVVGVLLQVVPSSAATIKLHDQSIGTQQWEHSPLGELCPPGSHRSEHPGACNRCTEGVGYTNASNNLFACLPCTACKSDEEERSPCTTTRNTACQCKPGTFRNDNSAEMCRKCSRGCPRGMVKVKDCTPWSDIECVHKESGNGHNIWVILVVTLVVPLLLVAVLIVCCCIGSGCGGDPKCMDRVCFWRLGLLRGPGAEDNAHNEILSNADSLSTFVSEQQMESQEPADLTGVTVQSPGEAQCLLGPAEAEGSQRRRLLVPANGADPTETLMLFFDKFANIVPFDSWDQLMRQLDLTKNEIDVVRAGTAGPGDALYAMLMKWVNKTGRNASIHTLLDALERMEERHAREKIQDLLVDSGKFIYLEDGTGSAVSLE
Description: The binding specificity of HuCTB006 was evaluated by chemiluminescent enzyme immunoassay (CLEIA).
HuCTB006 was diluted into 200, 40 and 8 ng/mL and then added to the wells. After 1 hour incubation in 37° C., the plate was washed. The binding of HuCTB006 with immobilized antigens was detected with HRP labeled secondary antibody and a substrate solution.

colon cancer, CS182, 5# = assay: Patients primary tumor tissue subcutaneous model (Day 27 after treatment); assay type: in vivo, nude mice; conditions: HuCTB006 10 mg/kg i.v. QW × 3w
From the text: Fresh primary tumor tissues from patients were implanted in NOD/SCID mice's flank, which developed into a primary tumor, which was then transferred to the nude mice's flank to allow the tumor reaching an exponential growth phase, and the tumor was named 1# tumor, and so on. When the tumor volume and number reached passage requirements, they were implanted into the right flank of nude mice. When the tumors' average volumes reached 100-200 mm^3, the mice were grouped.
The bodyweight and major/minor axis of mice were measured twice a week, and Tumor Growth Inhibition (TGI) and tumor volume were calculated same as in 5.1.5. In addition, to evaluate the synergetic effect of drug combination in tumor growth, Jin Zhengjun Q value judgment method was used with the follow formula: Q=Ea+b/(Ea+Eb−Ea×Eb). Ea+b is the inhibition ratio of drug combination, Ea and Eb are the inhibition ratio of each of drug treatment when it is administered alone. […] The animals were monitored, and when the experiments were concluded, mice were sacrificed and tumors were extracted and weighted. All the animal experiments confer to the regulations of animal's welfare and the management of experimental animal usage.
Tumor volumes were represented with average±standard error. Data analysis was done using Spss16.0, One-Way ANOVA, LSD (homogeneity of variance) or Dunnett T3 (non-homogeneity of variance). […] P<0.05 represents significant difference.

MDA-MB-453 = assay: In vitro cytotoxic sensitivity of CTB006; assay type: cell-based, human; conditions: MDA-MB-453, Breast cancer
MDA-MB-468 = assay: In vitro cytotoxic sensitivity of CTB006; assay type: cell-based, human; conditions: MDA-MB-468, Breast cancer
BGC803 = assay: In vitro cytotoxic sensitivity of CTB006; assay type: cell-based, human; conditions: BGC803, Stomach cancer
Capan-1 = assay: In vitro cytotoxic sensitivity of CTB006; assay type: cell-based, human; conditions: Capan-1, Pancreatic cancer
A427 = assay: In vitro cytotoxic sensitivity of CTB006; assay type: cell-based, human; conditions: A427, Lung cancer
MIA-PaCa-2 = assay: Human pancreatic cancer MIA-PaCa-2 subcutaneous model (34 days of treatment); conditions: for Tumor regression: treatment groups
Description: Tumor cells (i.e., MIA-PaCa-2, WiDr, H2122, colo205) were inoculated in nude mice's flank at 5×10^6 cells per mouse. The mice were grouped when the average volume of tumors reached about 100˜200 mm^3. “QW”=weekly dose. “Q3d”=dosed every third day. “BiW”=biweekly.
The bodyweight and major/minor axis of the mice were measured twice a week, and the tumor volumes were calculated using the formula: Tumor volume=1/2×major axis×minor axis. […] “T” represents average tumor volume of the experimental group (cm^3), and “C” represents average tumor volume of the control group (cm^3). The animals were monitored at all times. The bodyweight and major/minor axis or mice were measured twice a week. When the experiments were concluded, mice were sacrificed and tumors were extracted and weighted.

[1] = HuCTB006 0.2 mg/kg i.v. QW × 6W
[2] = HuCTB006 0.6 mg/kg i.v. QW × 6W
[3] = repeated experiment, HuCTB006 0.2 mg/kg
[4] = repeated experiment, HuCTB006 0.6 mg/kg
[5] = repeated experiment, HuCTB006 1 mg/kg
[6] = repeated experiment, HuCTB006 10 mg/kg

## HuCTB006: Monospecific humanized chimeric monoclonal antibody directed to TRAIL-R2 receptor; heavy chain SEQ ID NO: 14, light chain SEQ ID NO: 12
HT-29
  In vitro cytotoxic sensitivity of CTB006: Non-responder
SW620
  In vitro cytotoxic sensitivity of CTB006: Non-responder
ZR-75-30
  In vitro cytotoxic sensitivity of CTB006: Non-responder
BT474
  In vitro cytotoxic sensitivity of CTB006: Non-responder
DR4-His-EC
  cross-reaction with coated antigen: no cross-reaction
Colon cancer, CS182, 5#
  T/C % (Calculated using tumor volumes): 102.39%
  Time of tumor volume changed significantly: 3
  Tumor Volume Mean ± SEM: 0.95 ± 0.06 cm^3
  Tumor weight Mean ± SEM: 0.64 ± 0.06 g
Colon cancer, CS182, 5#; 10 mg/kg
  TGI (Calculated using tumor volumes): −21.15%
  TGI (Calculated using tumor weight): −9.22%
Colon cancer, CS182, 5#; listed as HUCTB006, 10 mg/kg
  TGI (Calculated using tumor volumes): −21.15%
  TGI (Calculated using tumor weight): −9.22%
MDA-MB-453
  In vitro cytotoxic sensitivity of CTB006: Non-responder
MDA-MB-468
  In vitro cytotoxic sensitivity of CTB006: Non-responder
BGC803
  In vitro cytotoxic sensitivity of CTB006: Non-responder
Capan-1
  In vitro cytotoxic sensitivity of CTB006: Non-responder
A427
  In vitro cytotoxic sensitivity of CTB006: Non-responder
MIA-PaCa-2; [1]
  T/C % (Calculated using tumor volumes): 52.01%
  Time of tumor volume changed significantly: 13 days after first treatment
  Tumor Volume Mean ± SEM: 1.76 ± 0.15 cm^3
  Tumor weight Mean ± SEM: 0.79 ± 0.07 g
MIA-PaCa-2; [2]
  T/C % (Calculated using tumor volumes): 38.43%
  Tumor Volume Mean ± SEM: 1.27 ± 0.43 cm^3
  Tumor weight Mean ± SEM: 0.54 ± 0.21 g
MIA-PaCa-2; HuCTB006 1 mg/kg i.v. QW × 6W
  T/C % (Calculated using tumor volumes): 24.02%
  Tumor Volume Mean ± SEM: 0.88 ± 0.35 cm^3
  Tumor weight Mean ± SEM: 0.37 ± 0.19 g
MIA-PaCa-2; HuCTB006 10 mg/kg i.v. QW × 6W
  T/C % (Calculated using tumor volumes): 23.01%
  Time of tumor volume changed significantly: 7^2 days after first treatment
  Tumor Volume Mean ± SEM: 0.76 ± 0.22 cm^3
  Tumor weight Mean ± SEM: 0.19 ± 0.08 g
MIA-PaCa-2; first experiment
  Tumor regression: some animals of HuCTB006 groups showed tumor regression
MIA-PaCa-2; repeated experiment
  Tumor regression: some animals of HuCTB006 groups also showed tumor regression
MIA-PaCa-2; [3]
  TGI calculated based on the tumor volume: 59.52%
  TGI calculated based on the tumor weight: 72.38%
MIA-PaCa-2; [4]
  TGI calculated based on the tumor volume: 85.35%
  TGI calculated based on the tumor weight: 91.39%
MIA-PaCa-2; [5]
  TGI calculated based on the tumor volume: 87.52%
  TGI calculated based on the tumor weight: 92.02%
MIA-PaCa-2; [6]
  TGI calculated based on the tumor volume: 58.99%
  TGI calculated based on the tumor weight: 71.93%
MIA-PaCa-2; treatment groups over the time
  Bodyweights of mice: slow increase over the time
